This data set relates to rodent lifetime carcinogenesis bioassay, tumor incidence TD50. Briefly: chronic cancer bioassays in animals – CPDB, compiled studies (AID 1745844).

Structures are written as SMILES. The source made the active and inactive calls. No rule for the calls is given here.

Experimental findings from PubChem BioAssay AID1745844 (Carcinogenic Potency Database (CPDB), 2022) are described below.

For `CC(=O)Nc1ccc(N=Nc2cc(C)ccc2O)cc1`, the TD50 reads like this: (mouse, strain B6C3F1, females, in feed, site: all sites, lesion: leukemia + lymphoma, dosed 103 weeks, study length 105 weeks) 1510 mg/kg/day; (mouse, strain B6C3F1, females, in feed, site: all sites, lesion: lymphoma, dosed 103 weeks, study length 105 weeks) 1680 mg/kg/day; (mouse, strain B6C3F1, females, in feed, site: any site (literature study), lesion: several types, types named in the paper, dosed 103 weeks, study length 105 weeks) 769 mg/kg/day; (mouse, strain B6C3F1, females, in feed, site: liver, lesion: hepatocellular adenoma + hepatocellular carcinoma + neoplastic nodule, dosed 103 weeks, study length 105 weeks) 1020 mg/kg/day; (mouse, strain B6C3F1, females, in feed, site: liver, lesion: hepatocellular adenoma + hepatocellular carcinoma, dosed 103 weeks, study length 105 weeks) 1020 mg/kg/day; (mouse, strain B6C3F1, females, in feed, site: liver, lesion: hepatocellular adenoma, dosed 103 weeks, study length 105 weeks) 1340 mg/kg/day. Besides, the TD50 was 17200 mg/kg/day (mouse, strain B6C3F1, males, in feed, site: any site (literature study), lesion: several types, types named in the paper, dosed 103 weeks, study length 104 weeks); 2440 mg/kg/day (mouse, strain B6C3F1, males, in feed, site: lung, lesion: alveolar/bronchiolar adenoma + alveolar/bronchiolar carcinoma, dosed 103 weeks, study length 104 weeks); 2150 mg/kg/day (inactive) (mouse, strain B6C3F1, males, in feed, site: lung, lesion: alveolar/bronchiolar adenoma, dosed 103 weeks, study length 104 weeks); 46800 mg/kg/day (rat, strain Fischer 344, females, in feed, site: liver, lesion: hepatocellular adenoma + hepatocellular carcinoma + neoplastic nodule, dosed 103 weeks, study length 104 weeks); 833 mg/kg/day (rat, strain Fischer 344, males, in feed, site: liver, lesion: hepatocellular adenoma + hepatocellular carcinoma + neoplastic nodule, dosed 103 weeks, study length 104 weeks); 833 mg/kg/day (rat, strain Fischer 344, males, in feed, site: liver, lesion: hepatocellular carcinoma + neoplastic nodule, dosed 103 weeks, study length 104 weeks). Moreover, the TD50 runs as follows: (rat, strain Fischer 344, males, in feed, site: liver, lesion: neoplastic nodule, dosed 103 weeks, study length 104 weeks) 380 mg/kg/day; (rat, strain Fischer 344, males, in feed, site: stomach, lesion: all tumors, dosed 103 weeks, study length 104 weeks) 4090 mg/kg/day. The carcinogen call (rat, strain Fischer 344, females, in feed, site: any site (literature study), lesion: several types, types named in the paper, dosed 103 weeks, study length 104 weeks) is “negative (inactive)”.
For the compound `O=C1NC(c2ccc([N+](=O)[O-])s2)Nc2ccccc21` (configuration not stated), the TD50 runs as follows: (rat, strain Sprague-Dawley, females, in feed, site: any site (literature study), lesion: several types, types named in the paper, dosed 46 weeks, study length 66 weeks) 1.53 mg/kg/day; (rat, strain Sprague-Dawley, females, in feed, site: mammary gland, lesion: adenocarcinoma, dosed 46 weeks, study length 66 weeks) 13.3 mg/kg/day.
For `Cc1ccc(S(=O)(=O)OCCN(C)N=O)cc1`, the TD50 reads like this: (rat, strain Fischer 344, females, by gavage, site: liver, lesion: hemangiosarcoma, dosed 121 weeks, study length 121 weeks) 12.8 mg/kg/day; (rat, strain Fischer 344, females, by gavage, site: liver, lesion: hepatocellular carcinoma, dosed 121 weeks, study length 121 weeks) 7.55 mg/kg/day; (rat, strain Fischer 344, females, by gavage, site: liver, lesion: neoplastic nodule, dosed 121 weeks, study length 121 weeks) 22.3 mg/kg/day; (rat, strain Fischer 344, females, by gavage, site: liver, lesion: several types, types named in the paper, dosed 121 weeks, study length 121 weeks) 3.47 mg/kg/day; (rat, strain Fischer 344, males, by gavage, site: liver, lesion: hemangiosarcoma, dosed 121 weeks, study length 121 weeks) 11.8 mg/kg/day; (rat, strain Fischer 344, males, by gavage, site: liver, lesion: hepatocellular carcinoma, dosed 121 weeks, study length 121 weeks) 32.2 mg/kg/day. The TD50 (rat, strain Fischer 344, males, by gavage, site: liver, lesion: neoplastic nodule, dosed 121 weeks, study length 121 weeks) was determined as 12.6 mg/kg/day; the TD50 (rat, strain Fischer 344, males, by gavage, site: liver, lesion: several types, types named in the paper, dosed 121 weeks, study length 121 weeks) is 7.79 mg/kg/day; the TD50 (rat, strain Fischer 344, males, by gavage, site: pituitary gland, lesion: adenoma, dosed 121 weeks, study length 121 weeks) came out at 11.1 mg/kg/day; the TD50 (rat, strain Fischer 344, males, by gavage, site: testis, lesion: interstitial-cell tumor, dosed 121 weeks, study length 121 weeks) was found to be 11.1 mg/kg/day.

In general, TD50 refers to the 50% point of the dose-response relation for the toxic effect studied.
